PubChem BioAssay AID330 (DTP/NCI, 2004)
Several values for one entry are separate records, joined by “and”; a condition that tells them apart may be missing. Equal values may be shown once. Inconclusive results and toxic doses are left out. How the source made its calls: active means survival T/C of 150% or more; inactive means T/C below 125% in these data.

Tested on: P388 leukemia ip, CD2F1 mice, survival T/C
Assay: NCI In Vivo Anticancer Drug Screen. Data for tumor model P388 Leukemia (intraperitoneal) in CD2F1 (CDF1) mice
Conditions: endpoint: median survival time, higher = longer survival
Protocol: The antitumor activity of compounds was measured in mice bearing transplantable tumors. Survival or tumor size were measured and the results are expressed as the measurement made in the treated group (T) divided by the measurement made in the vehicle treated control group (C). The tumor model used in this assay is P388 Leukemia (intraperitoneal) in CD2F1 (CDF1) mice

[1] = dose: 50.0 mg/kg/injection, schedule: Q01DX005 (ip), vehicle: Klucel (hydroxypropylcellulose) (HPC)
[2] = dose: 100.0 mg/kg/injection, schedule: Q01DX005 (ip), vehicle: Klucel (hydroxypropylcellulose) (HPC)
[3] = dose: 60.0 mg/kg/injection, schedule: Q01DX005 (ip), vehicle: saline with Tween-80
[4] = dose: 120.0 mg/kg/injection, schedule: Q01DX005 (ip), vehicle: saline with Tween-80
[5] = dose: 240.0 mg/kg/injection, schedule: Q01DX005 (ip), vehicle: saline with Tween-80
[6] = dose: 15.0 mg/kg/injection, schedule: Q01DX005 (ip), vehicle: saline with Tween-80
[7] = dose: 30.0 mg/kg/injection, schedule: Q01DX005 (ip), vehicle: saline with Tween-80
[8] = dose: 25.0 mg/kg/injection, schedule: Q01DX001 (ip), vehicle: saline
[9] = dose: 50.0 mg/kg/injection, schedule: Q01DX001 (ip), vehicle: saline
[10] = dose: 100.0 mg/kg/injection, schedule: Q01DX001 (ip), vehicle: saline
[11] = dose: 50.0 mg/kg/injection, schedule: Q01DX009 (ip), vehicle: saline
[12] = dose: 100.0 mg/kg/injection, schedule: Q01DX009 (ip), vehicle: saline
[13] = dose: 100.0 mg/kg/injection, schedule: Q01DX009 (ip), vehicle: saline with Tween-80
[14] = dose: 200.0 mg/kg/injection, schedule: Q01DX009 (ip), vehicle: saline with Tween-80
[15] = dose: 50.0 mg/kg/injection, schedule: Q01DX009 (ip), vehicle: saline with Tween-80
[16] = dose: 100.0 mg/kg/injection, schedule: Q04DX003 (ip), vehicle: saline with Tween-80
[17] = dose: 200.0 mg/kg/injection, schedule: Q04DX003 (ip), vehicle: saline with Tween-80

Measured: T/C

Oc1cc2c(cc1C/C=C/c1ccccc1)OCO2
inactive: dose: 2.5 mg/kg/injection, schedule: Q01DX009 (ip), vehicle: saline with Tween-80 101 % of control | dose: 5.0 mg/kg/injection, schedule: Q01DX009 (ip), vehicle: saline with Tween-80 103 % of control | dose: 10.0 mg/kg/injection, schedule: Q01DX009 (ip), vehicle: saline with Tween-80 101 % of control

COc1ccccc1/C=C(\C(=O)O)c1ccccc1
inactive: [1] 96 % of control | [2] 91 % of control

CCC(C)C1C(=O)O[B-](F)(F)/[N+]1=C\c1ccccc1 (stereo not drawn)
inactive: dose: 100.0 mg/kg/injection, schedule: Q04DX003 (ip), vehicle: Klucel (hydroxypropylcellulose) (HPC) 104 % of control | dose: 200.0 mg/kg/injection, schedule: Q04DX003 (ip), vehicle: Klucel (hydroxypropylcellulose) (HPC) 109 % of control

CCNCC1COc2cccc(OCC)c2O1 (stereo not drawn)
inactive: dose: 25.0 mg/kg/injection, schedule: Q04DX002 (ip), vehicle: saline 104 % of control | dose: 50.0 mg/kg/injection, schedule: Q04DX002 (ip), vehicle: saline 101 % of control | dose: 100.0 mg/kg/injection, schedule: Q04DX002 (ip), vehicle: saline 99 % of control and 108 % of control

Cc1cc(=O)[nH]c2cc(NN)ccc12
inactive: [3] 96 % of control | [4] 92 % of control | [5] 95 % of control

O=C(N/N=C/c1ccc(C(F)(F)F)cc1)c1ccncc1
inactive: [6] 106 % of control | [7] 101 % of control | [3] 101 % of control and 97 % of control | [4] 100 % of control | [5] 100 % of control

CCCCn1cnc(C(=O)OC)c1O (tested in a mixture with another compound)
inactive: dose: 100.0 mg/kg/injection, schedule: Q04DX002 (ip), vehicle: water 103 % of control | dose: 200.0 mg/kg/injection, schedule: Q04DX002 (ip), vehicle: water 101 % of control | dose: 400.0 mg/kg/injection, schedule: Q04DX002 (ip), vehicle: water 108 % of control

CC/C([O-])=C1/C(=O)N(c2ccccc2)N=C1C.CC/C([O-])=C1/C(=O)N(c2ccccc2)N=C1C.[Cu+2]
inactive: [6] 100 % of control | [7] 107 % of control | [3] 91 % of control and 94 % of control | [4] 100 % of control

O=S(=O)(OCC(COS(=O)(=O)c1ccccc1)(OS(=O)(=O)c1ccccc1)OS(=O)(=O)c1ccccc1)c1ccccc1
inactive: dose: 100.0 mg/kg/injection, schedule: Q01DX009 (ip), vehicle: Klucel (hydroxypropylcellulose) (HPC) 105 % of control | dose: 200.0 mg/kg/injection, schedule: Q01DX009 (ip), vehicle: Klucel (hydroxypropylcellulose) (HPC) 104 % of control | dose: 400.0 mg/kg/injection, schedule: Q01DX009 (ip), vehicle: Klucel (hydroxypropylcellulose) (HPC) 100 % of control

NC(N)=NCCSCc1ccc2ccccc2n1
inactive: dose: 50.0 mg/kg/injection, schedule: Q01DX005 (ip), vehicle: saline 94 % of control | dose: 100.0 mg/kg/injection, schedule: Q01DX005 (ip), vehicle: saline 101 % of control

Cc1ccc2nc(N/N=C(\c3ccccc3)c3ccccn3)cc(C)c2c1
inactive: dose: 50.0 mg/kg/injection, schedule: Q01DX005 (ip), vehicle: saline with Tween-80 100 % of control | dose: 100.0 mg/kg/injection, schedule: Q01DX005 (ip), vehicle: saline with Tween-80 112 % of control

O=C1COC(c2ccccc2O)=NN1CCCN1CCCC1
inactive: dose: 12.5 mg/kg/injection, schedule: Q01DX001 (ip), vehicle: saline 100 % of control | [8] 100 % of control | [9] 107 % of control | [10] 103 % of control

CC(=O)O/N=C/c1ccncc1
inactive: dose: 25.0 mg/kg/injection, schedule: Q04DX003 (ip), vehicle: saline 108 % of control | dose: 50.0 mg/kg/injection, schedule: Q04DX003 (ip), vehicle: saline 101 % of control | dose: 100.0 mg/kg/injection, schedule: Q04DX003 (ip), vehicle: saline 107 % of control | dose: 200.0 mg/kg/injection, schedule: Q04DX003 (ip), vehicle: saline 109 % of control | dose: 400.0 mg/kg/injection, schedule: Q04DX003 (ip), vehicle: saline 117 % of control

CCCN(CCC)C(=O)CN(C=O)c1ncc([N+](=O)[O-])s1
inactive: [8] 104 % of control | [9] 108 % of control | [10] 107 % of control

N/C(Cc1noc2ccccc12)=N\O
inactive: [11] 109 % of control | [12] 107 % of control

O=C(O)c1ncc2ncccc2c1O
inactive: [11] 107 % of control | [12] 104 % of control | dose: 200.0 mg/kg/injection, schedule: Q01DX009 (ip), vehicle: saline 101 % of control

COc1c(OC(C)=O)ccc2c1C=CCCC2=O
inactive: [13] 104 % of control | [14] 102 % of control | dose: 400.0 mg/kg/injection, schedule: Q01DX009 (ip), vehicle: saline with Tween-80 102 % of control

O=[N+]([O-])c1ccc(SCN2CCCCC2)cc1
inactive: [15] 104 % of control | [13] 104 % of control | [14] 118 % of control

CCOC(=O)C1=C(C)NC(=O)NC1c1cccc(OC)c1O (stereo not drawn)
inactive: [1] 94 % of control | [2] 91 % of control | dose: 200.0 mg/kg/injection, schedule: Q01DX005 (ip), vehicle: Klucel (hydroxypropylcellulose) (HPC) 97 % of control

C[C@]12C=C[C@@]3(CC[C@@H]4[C@](C)(CO)[C@H](O)CC[C@@]4(C)[C@@H]3CC1)C2
inactive: dose: 3.5 mg/kg/injection, schedule: Q01DX005 (ip), vehicle: Klucel (hydroxypropylcellulose) (HPC) 89 % of control | dose: 7.0 mg/kg/injection, schedule: Q01DX005 (ip), vehicle: Klucel (hydroxypropylcellulose) (HPC) 100 % of control | dose: 14.0 mg/kg/injection, schedule: Q01DX005 (ip), vehicle: Klucel (hydroxypropylcellulose) (HPC) 92 % of control | dose: 28.0 mg/kg/injection, schedule: Q01DX005 (ip), vehicle: Klucel (hydroxypropylcellulose) (HPC) 96 % of control

C/C=C(\C)C(=O)O[C@@H]1c2cc3c(cc2-c2c(cc(OC)c(OC)c2OC)[C@@H]2C(=O)OC[C@@H]12)OCO3
inactive: dose: 1.25 mg/kg/injection, schedule: Q01DX009 (ip), vehicle: Klucel (hydroxypropylcellulose) (HPC) 92 % of control | dose: 2.5 mg/kg/injection, schedule: Q01DX009 (ip), vehicle: Klucel (hydroxypropylcellulose) (HPC) 111 % of control | dose: 5.0 mg/kg/injection, schedule: Q01DX009 (ip), vehicle: Klucel (hydroxypropylcellulose) (HPC) 113 % of control | dose: 10.0 mg/kg/injection, schedule: Q01DX009 (ip), vehicle: Klucel (hydroxypropylcellulose) (HPC) 103 % of control

Ic1ccccc1C[N+]12CN3CN(CN(C3)C1)C2
inactive: [16] 120 % of control | [17] 115 % of control

CC(=O)Nc1ccc(S(=O)(=O)Oc2noc3ccc(S(N)(=O)=O)cc23)cc1
inactive: dose: 100.0 mg/kg/injection, schedule: Q04DX002 (ip), vehicle: Klucel (hydroxypropylcellulose) (HPC) 102 % of control | dose: 200.0 mg/kg/injection, schedule: Q04DX002 (ip), vehicle: Klucel (hydroxypropylcellulose) (HPC) 107 % of control | dose: 400.0 mg/kg/injection, schedule: Q04DX002 (ip), vehicle: Klucel (hydroxypropylcellulose) (HPC) 109 % of control

O=C(NC(=S)c1ccc(Br)cc1)Nc1ccc(Cl)c(Cl)c1
inactive: dose: 12.5 mg/kg/injection, schedule: Q01DX009 (ip), vehicle: saline with Tween-80 96 % of control | dose: 25.0 mg/kg/injection, schedule: Q01DX009 (ip), vehicle: saline with Tween-80 98 % of control | [15] 106 % of control

NC1=NN(O)C2=CC([N+](=O)[O-])C=CC2=N1 (stereo not drawn)
inactive: [15] 101 % of control | [13] 110 % of control | [14] 97 % of control

COc1ccc(C(=O)CCc2cccc(NC(=O)CCCl)c2)cc1
inactive: [3] 105 % of control | [4] 94 % of control | [5] 92 % of control

O=C(N/N=C/c1ccccc1O)C(O)(c1ccccc1)c1ccccc1
inactive: [16] 107 % of control | [17] 101 % of control | dose: 400.0 mg/kg/injection, schedule: Q04DX003 (ip), vehicle: saline with Tween-80 92 % of control
